Eight molecules from ChEMBL document CHEMBL6078630, “Design, synthesis, and bioactivity investigation of novel cyclic lipopeptide antibiotics targeting top-priority multidrug-resistant gram-negative bacteria” (Eur J Med Chem, 2024) can be followed below.

SMILES strings stand for the structures. Converted amounts (≈) assume the structure as drawn. Bridge positions count the residues as written; N and C are the ends. Square brackets hold non-standard residues; d marks the D form. Peptide text beside a SMILES is read from it. * marks the point of attachment. Heptanoyl(6-Me) = CC(C)CCCCC(=O)*; dNle = CCCC[C@@H](N)C(=O)O; X1 = CC[C@H](C)CCCCC(=O)*; dDab = NCC[C@@H](N)C(=O)O; Octanoyl = CCCCCCCC(=O)*; Orn = NCCC[C@H](N)C(=O)O; Dab = NCC[C@H](N)C(=O)O

For orientation: IC50 means the midpoint of a concentration-inhibition curve. Broadly, the MIC is the least concentration at which growth counts as inhibited.

The nature of series [1]: Renal cytotoxicity against HK-2 cells incubated for 72 hrs by CCK8 assay. The series is classed as toxicity, cell-based. To be noted: human. On the technique in general: Tetrazolium assays rely on reduction of a dye to a coloured formazan, in cell work by metabolically active cells.
Series [2] concerns Acinetobacter baumannii. Nature of the series: Antibacterial activity against carbapenem-sensitive Acinetobacter baumannii clinical isolate 19-1 assessed as inhibition of bacterial growth incubated for 16 to 20 hrs by CLSI protocol based broth microdilution method. The series is classed as functional. As to conditions: time 16-20 hrs. On the technique in general: Dilution methods test growth across graded concentrations, often in twofold steps.

The subject of series [3] is Pseudomonas aeruginosa. Put plainly: Antibacterial activity against Pseudomonas aeruginosa ATCC 27853 assessed as inhibition of bacterial growth incubated for 16 to 20 hrs by CLSI protocol based broth microdilution method. It is filed as functional. To be noted: time 16-20 hrs.
Series [4] deals with Pseudomonas aeruginosa. Nature of the series: Antibacterial activity against carbapenem-resistant Pseudomonas aeruginosa clinical isolate 19-3 assessed as inhibition of bacterial growth incubated for 16 to 20 hrs by CLSI protocol based broth microdilution method. The series is classed as functional. To be noted: time 16-20 hrs.
Series [5] relates to Klebsiella pneumoniae. Nature of the series: Antibacterial activity against carbapenem-resistant Klebsiella pneumoniae clinical isolate KPN+19-15 assessed as inhibition of bacterial growth incubated for 16 to 20 hrs by CLSI protocol based broth microdilution method. It is filed as functional. As to conditions: time 16-20 hrs.
Series [6] relates to Klebsiella pneumoniae. Nature of the series: Antibacterial activity against carbapenem-resistant Klebsiella pneumoniae ATCC BAA-1705 assessed as inhibition of bacterial growth incubated for 16 to 20 hrs by CLSI protocol based broth microdilution method. The series is classed as functional. As to conditions: time 16-20 hrs.
For series [7], the system named is Acinetobacter baumannii. Nature of the series: Antibacterial activity against Acinetobacter baumannii NCTC 13304 (OXA-27) assessed as inhibition of bacterial growth incubated for 16 to 20 hrs by CLSI protocol based broth microdilution method. It is filed as functional. To be noted: time 16-20 hrs.
The test system of series [8] is Escherichia coli. Nature of the series: Antibacterial activity against Escherichia coli ATCC BAA-2523 assessed as inhibition of bacterial growth incubated for 16 to 20 hrs by CLSI protocol based broth microdilution method. The series is classed as functional. To be noted: time 16-20 hrs.
Series [9] has as its system Escherichia coli. Put plainly: Antibacterial activity against carbapenem-resistant Escherichia coli ATCC BAA-2340 assessed as inhibition of bacterial growth incubated for 16 to 20 hrs by CLSI protocol based broth microdilution method. To be noted: time 16-20 hrs. It is filed as functional.

For the molecule `CC(C)CCCCC(=O)N[C@@H](CCN)C(=O)N[C@H](C(=O)N[C@@H](CCN)C(=O)N[C@H]1CCNC(=O)[C@H]([C@@H](C)O)NC(=O)[C@H](CCN)NC(=O)[C@H](CCN)NC(=O)[C@H]([C@@H](C)O)NC(=O)[C@@H](Cc2ccccc2)NC(=O)[C@H](CCN)NC1=O)[C@@H](C)O` ({Heptanoyl(6-Me)}-[Dab]T[Dab][Dab][Dab][dF]T[Dab][Dab]T; lactam 4-C), in series [1], the concentration for half-maximal inhibition (IC50) at 72 h is more than 500 µg/mL.
With `CC(C)CCCCC(=O)N[C@@H](CCN)C(=O)N[C@H](C(=O)N[C@@H](CCCCN)C(=O)N[C@H]1CCNC(=O)[C@H]([C@@H](C)O)NC(=O)[C@H](CCN)NC(=O)[C@H](CCN)NC(=O)[C@H]([C@@H](C)O)NC(=O)[C@@H](Cc2ccccc2)NC(=O)[C@H](CCN)NC1=O)[C@@H](C)O`, the MIC was 2 µg/mL (≈ 1.66 µM) with Acinetobacter baumannii [2]; more than 64 µg/mL with Pseudomonas aeruginosa [3]; 4 µg/mL (≈ 3.32 µM) in the series with Pseudomonas aeruginosa [4]; 0.25 µg/mL (≈ 0.207 µM) in the series with Klebsiella pneumoniae [5]; 0.25 µg/mL (≈ 0.207 µM) with Klebsiella pneumoniae [6]; 1 µg/mL (≈ 0.83 µM) in the series with Acinetobacter baumannii [7]. Also, the MIC with Escherichia coli [8] and in the series on Escherichia coli [9] was 0.25 µg/mL (≈ 0.207 µM) in each case. In series [1], this molecule showed a half-inhibitory concentration (IC50) at 72 h of more than 500 µg/mL.
Turning to `CC[C@H](C)CCCCC(=O)N[C@@H](CCN)C(=O)N[C@H](C(=O)N[C@H](CCN)C(=O)N[C@H]1CCNC(=O)[C@H]([C@@H](C)O)NC(=O)[C@H](CCN)NC(=O)[C@H](CCN)NC(=O)[C@H]([C@@H](C)O)NC(=O)[C@@H](Cc2ccccc2)NC(=O)[C@H](CCN)NC1=O)[C@@H](C)O` (X1-[Dab]T[dDab][Dab][Dab][dF]T[Dab][Dab]T; lactam 4-C), the MIC was not above 0.03 µg/mL with Acinetobacter baumannii [2]; 1 µg/mL (≈ 0.839 µM) in the series on Pseudomonas aeruginosa [3]; 1 µg/mL (≈ 0.839 µM) in the series with Pseudomonas aeruginosa [4]; not above 0.03 µg/mL in the series with Klebsiella pneumoniae [5]; not above 0.03 µg/mL in the series on Klebsiella pneumoniae [6]; not above 0.03 µg/mL with Acinetobacter baumannii [7]. For the same molecule, the MIC in the series on Escherichia coli [8] and in the series on Escherichia coli [9] was not above 0.03 µg/mL throughout. Moreover, in [1], half-maximal inhibition (IC50 at 72 h) required 371 µg/mL (≈ 311 µM).
Consider `CC(C)CCCCC(=O)N[C@@H](CCN)C(=O)N[C@H](C(=O)N[C@@H](CO)C(=O)N[C@H]1CCNC(=O)[C@H]([C@@H](C)O)NC(=O)[C@H](CCN)NC(=O)[C@H](CCN)NC(=O)[C@H]([C@@H](C)O)NC(=O)[C@@H](CC(C)C)NC(=O)[C@H](CCN)NC1=O)[C@@H](C)O`, for which the MIC in the series on Acinetobacter baumannii [2] was 8 µg/mL (≈ 7.08 µM); in the series on Pseudomonas aeruginosa [3], more than 64 µg/mL; in the series on Pseudomonas aeruginosa [4], 64 µg/mL (≈ 56.6 µM); in the series on Klebsiella pneumoniae [5], 4 µg/mL (≈ 3.54 µM); with Klebsiella pneumoniae [6], 4 µg/mL (≈ 3.54 µM); in the series on Acinetobacter baumannii [7], 8 µg/mL (≈ 7.08 µM). Also, the MIC with Escherichia coli [8] and in the series with Escherichia coli [9] was 2 µg/mL (≈ 1.77 µM) each time. In series [1], this molecule showed an IC50 at 72 h of more than 500 µg/mL.
Regarding `CC(C)CCCCC(=O)N[C@@H](CCCN)C(=O)N[C@H](C(=O)N[C@H](CO)C(=O)N[C@H]1CCNC(=O)[C@H]([C@@H](C)O)NC(=O)[C@H](CCN)NC(=O)[C@H](CCN)NC(=O)[C@H]([C@@H](C)O)NC(=O)[C@@H](Cc2ccccc2)NC(=O)[C@H](CCN)NC1=O)[C@@H](C)O` ({Heptanoyl(6-Me)}-[Orn]T[dS][Dab][Dab][dF]T[Dab][Dab]T; lactam 4-C), the MIC in the series with Acinetobacter baumannii [2] is 4 µg/mL (≈ 3.39 µM); in the series with Pseudomonas aeruginosa [3], more than 64 µg/mL; with Pseudomonas aeruginosa [4] it was 64 µg/mL (≈ 54.3 µM); in the series on Klebsiella pneumoniae [5], 0.5 µg/mL (≈ 0.424 µM); in the series on Klebsiella pneumoniae [6], 0.5 µg/mL (≈ 0.424 µM); in the series with Acinetobacter baumannii [7], 4 µg/mL (≈ 3.39 µM). The MIC in the series on Escherichia coli [8] and with Escherichia coli [9] was 0.25 µg/mL (≈ 0.212 µM) each time. Besides, the IC50 at 72 h in series [1] was more than 500 µg/mL.
On to `CCCCCCCC(=O)N[C@@H](CCN)C(=O)N[C@H](C(=O)N[C@@H](CCN)C(=O)N[C@H]1CCNC(=O)[C@H]([C@@H](C)O)NC(=O)[C@H](CCN)NC(=O)[C@H](CCN)NC(=O)[C@H]([C@@H](C)O)NC(=O)[C@@H](CCC)NC(=O)[C@H](CCN)NC1=O)[C@@H](C)O`, for which, in [1], the IC50 at 72 h is more than 500 µg/mL.
On the same count and under the same terms, next, `CCCCCCCC(=O)N[C@@H](CCN)C(=O)N[C@H](C(=O)N[C@@H](CCN)C(=O)N[C@H]1CCNC(=O)[C@H]([C@@H](C)O)NC(=O)[C@H](CCN)NC(=O)[C@H](CCN)NC(=O)[C@H]([C@@H](C)O)NC(=O)[C@@H](CCCC)NC(=O)[C@H](CCN)NC1=O)[C@@H](C)O` (Octanoyl-[Dab]T[Dab][Dab][Dab][dNle]T[Dab][Dab]T; lactam 4-C): more than 500 µg/mL.
`CC(C)C[C@@H]1NC(=O)[C@H](CCN)NC(=O)[C@@H](NC(=O)[C@@H](CO)NC(=O)[C@@H](NC(=O)[C@H](CCN)NC(=O)CCCCCCC(=O)O)[C@@H](C)O)CCNC(=O)[C@H]([C@@H](C)O)NC(=O)[C@H](CCN)NC(=O)[C@H](CCN)NC(=O)[C@H]([C@@H](C)O)NC1=O`: the MIC came to 0.5 µg/mL (≈ 0.431 µM) in the series with Acinetobacter baumannii [2]; 8 µg/mL (≈ 6.89 µM) with Pseudomonas aeruginosa [3]; 8 µg/mL (≈ 6.89 µM) in the series with Pseudomonas aeruginosa [4]; 0.25 µg/mL (≈ 0.215 µM) with Klebsiella pneumoniae [5]; 0.5 µg/mL (≈ 0.431 µM) in the series on Klebsiella pneumoniae [6]; 0.25 µg/mL (≈ 0.215 µM) in the series on Acinetobacter baumannii [7]. The MIC with Escherichia coli [8] and in the series on Escherichia coli [9] was 0.125 µg/mL (≈ 0.108 µM) each time. The half-maximal inhibitory concentration (IC50) at 72 h in series [1] is more than 500 µg/mL.
